Reference: patent US20230286928A1, “HETEROCYCLIC COMPOUNDS USEFUL IN THE TREATMENT OF DISEASE” (Epigen Biosciences, Inc., priority 2018, published 2023)

Biological target: T1, LPA1R (Homo sapiens, UniProt Q92633)
T1 construct: host or cells: LPA1R expressing cells (Millipore, GPCR Profiler)
Assay: Calcium flux assay: inhibition of LPA-stimulated Ca2+ flux (FLIPR, antagonist mode)
Format: cell-based
Conditions: LPA1R Ca2+ flux functional assay, LPA1R expressing cells challenged with EC80 of LPA, read-out: LPA1 R Antagonist Activity
Protocol: Inhibition of LPA-stimulated Ca^2+ flux was used to assess compound potency using FLIPR technology in a 96 well plate format. The assay buffer used was a modified Hanks Balanced Salt Solution (HBSS) where HBSS was supplemented to contain 20 mM HEPES and 2.5 mM Probenecid at pH7.4 (Millipore, GPCR Profiler®). LPA1R expressing cells (Millipore) were plated and prepared 24 hours prior to assay of test articles. Ca^2+ ion flux was assessed from fluorescence of a Fluo-based No Wash Ca^2+ dye. Antagonist data are generated from plates with LPA concentrations sufficient to generate 80% efficacy [EC80]. Percentage inhibition was calculated from a reduction of efficacy according to concentration of compounds of Formula I-VI. For dose responses the inhibition data was used to calculate compound IC50.
The agonist assay was conducted on a FLIPR^TETRA instrument where the test compound(s), vehicle controls, and reference agonist were added to the assay plate after a fluorescence baseline was established. The agonist assay was a total of 180 seconds and was used to assess each compound's ability to activate each GPCR assayed. Upon completion of the agonist assay, the assay plate was removed from the FLIPR^TETRA and incubated at 25° C. for seven (7) minutes. After the incubation period, the assay plate was placed back in the FLIPR^TETRA and the antagonist assay was initiated.
Antagonist Assay: Using EC80 potency values determined during the agonist assay, all pre-incubated sample compound wells were challenged with EC80 concentration of reference agonist after establishment of a fluorescence baseline. The antagonist assay was conducted using the same assay plate that was used for the agonist assay. The antagonist assay was conducted on a FLIPR^TETRA instrument where 9 vehicle controls and EC80 concentration of reference agonist were added to appropriate wells. The antagonist assay was a total of 180 seconds and was used to assess each compound's ability to inhibit each GPCR assayed.
Data Processing: All assay plate data were subjected to appropriate baseline corrections. After baseline corrections were applied, maximum fluorescence values were exported and data processed to calculate percentage activation (relative to Emax reference agonist and vehicle control values), percentage inhibition (relative to EC80 and vehicle control values), and additional statistical values (i.e. Z′, percentage variation between replicate data values) to assess the quality of each plate. Where assay plate data were rejected, additional experiments were conducted. All dose response curves were generated using GraphPad Prism. The curves were fit by utilizing “Sigmoidal Dose Response (Variable Slope)” equation where the bottom parameter was fixed to “0.” Where appropriate, the top parameter was fixed to “100” to better predict potency values when a full curve was not generated by the concentrations assayed.

T1 sequence (Q92633 whole entry): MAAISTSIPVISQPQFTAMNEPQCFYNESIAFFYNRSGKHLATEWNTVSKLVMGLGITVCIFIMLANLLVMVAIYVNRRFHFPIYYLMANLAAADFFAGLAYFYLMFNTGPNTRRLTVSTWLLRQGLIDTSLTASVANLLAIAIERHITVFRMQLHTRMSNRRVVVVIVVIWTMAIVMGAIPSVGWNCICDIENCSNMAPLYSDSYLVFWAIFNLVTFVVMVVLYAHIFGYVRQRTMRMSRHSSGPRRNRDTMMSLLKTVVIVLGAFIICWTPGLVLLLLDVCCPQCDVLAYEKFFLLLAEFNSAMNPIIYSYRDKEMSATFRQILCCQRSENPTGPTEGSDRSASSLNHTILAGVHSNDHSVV

IC50	SMILES
< 300 nM	C[C@@H](OC(=O)Nc1c(F)cnn1-c1ccc(-c2ccc(C3(C(=O)O)CC3)cc2)nc1)c1ccccc1Cl [Compound 1, (R)-1-(4-(5-(5-(((1-(2-chlorophenyl)ethoxy)carbonyl)amino)-4-fluoro-1H-pyrazol-1-yl)pyridin-2-yl)phenyl)cyclopropane-1-carboxylic acid]
< 300 nM	C[C@@H](OC(=O)Nc1c(Cl)cnn1-c1ccc(-c2ccc(C3(C(=O)O)CC3)cc2)nc1)c1ccccc1Cl [Compound 2, (R)-1-(4-(5-(4-chloro-5-(((1-(2-chlorophenyl)ethoxy)carbonyl)amino)-1H-pyrazol-1-yl)pyridin-2-yl)phenyl)cyclopropane-1-carboxylic acid]
< 300 nM	C[C@@H](OC(=O)Nc1c(F)cnn1-c1ccc(-c2ccc(C3(C(=O)O)CC3)cc2)cc1)c1ccccc1 [Compound 3, (R)-1-(4′-(4-fluoro-5-(((1-phenylethoxy)carbonyl)amino)-1H-pyrazol-1-yl)-[1,1′-biphenyl]-4-yl)cyclopropane-1-carboxylic acid]
< 300 nM	C[C@@H](OC(=O)Nc1c(Cl)cnn1-c1ccc(-c2ccc(C3(C(=O)O)CC3)cc2)cc1)c1ccccc1 [Compound 4, (R)-1-(4′-(4-chloro-5-(((1-phenylethoxy)carbonyl)amino)-1H-pyrazol-1-yl)-[1,1′-biphenyl]-4-yl)cyclopropane-1-carboxylic acid]
< 300 nM	C[C@@H](OC(=O)Nc1c(C#N)cnn1-c1ccc(-c2ccc(C3(C(=O)O)CC3)cc2)cc1)c1ccccc1 [Compound 5, (R)-1-(4′-(4-cyano-5-(((1-phenylethoxy)carbonyl)amino)-1H-pyrazol-1-yl)-[1,1′-biphenyl]-4-yl)cyclopropane-1-carboxylic acid]
< 300 nM	C[C@@H](OC(=O)Nc1c(C#N)cnn1-c1ccc(-c2ccc(C3(C(=O)O)CC3)cc2)cc1)c1ccccc1Cl [Compound 6, (R)-1-(4′-(5-(((1-(2-chlorophenyl)ethoxy)carbonyl)amino)-4-cyano-1H-pyrazol-1-yl)-[1,1′-biphenyl]-4-yl)cyclopropane-1-carboxylic acid]
< 300 nM	C[C@@H](OC(=O)Nc1c(F)cnn1-c1ccc(-c2ccc(C3(C(=O)O)CC3)c(F)c2)cc1)c1ccccc1 [Compound 7, (R)-1-(3-fluoro-4′-(4-fluoro-5-(((1-phenylethoxy)carbonyl)amino)-1H-pyrazol-1-yl)-[1,1′-biphenyl]-4-yl)cyclopropane-1-carboxylic acid]
< 300 nM	C[C@@H](OC(=O)Nc1c(F)cnn1-c1ccc(-c2ccc(C3(C(=O)O)CC3)cc2F)cc1)c1ccccc1 [Compound 8, (R)-1-(2-fluoro-4′-(4-fluoro-5-(((1-phenylethoxy)carbonyl)amino)-1H-pyrazol-1-yl)-[1,1′-biphenyl]-4-yl)cyclopropane-1-carboxylic acid]
< 300 nM	C[C@@H](OC(=O)Nc1c(Cl)cnn1-c1ccc(-c2ccc(C3(C(=O)O)CC3)c(F)c2)cc1)c1ccccc1 [Compound 9, (R)-1-(4′-(4-chloro-5-(((1-phenylethoxy)carbonyl)amino)-1H-pyrazol-1-yl)-3-fluoro-[1,1′-biphenyl]-4-yl)cyclopropane-1-carboxylic acid]
< 300 nM	C[C@@H](OC(=O)Nc1c(Cl)cnn1-c1ccc(-c2ccc(C3(C(=O)O)CC3)cc2F)cc1)c1ccccc1 [Compound 10, (R)-1-(4′-(4-chloro-5-(((1-phenylethoxy)carbonyl)amino)-1H-pyrazol-1-yl)-2-fluoro-[1,1′-biphenyl]-4-yl)cyclopropane-1-carboxylic acid]
< 300 nM	C[C@@H](OC(=O)Nc1c(F)cnn1-c1ccc(-c2ccc(C3(C(=O)O)CC3)cc2Cl)cc1)c1ccccc1 [Compound 11, (R)-1-(2-chloro-4′-(4-fluoro-5-(((1-phenylethoxy)carbonyl)amino)-1H-pyrazol-1-yl)-[1,1′-biphenyl]-4-yl)cyclopropane-1-carboxylic acid]
< 300 nM	C[C@@H](OC(=O)Nc1c(Cl)cnn1-c1ccc(-c2ccc(C3(C(=O)O)CC3)cc2Cl)cc1)c1ccccc1 [Compound 12, (R)-1-(2-chloro-4′-(4-chloro-5-(((1-phenylethoxy)carbonyl)amino)-1H-pyrazol-1-yl)-[1,1′-biphenyl]-4-yl)cyclopropane-1-carboxylic acid]
< 300 nM	Cc1cc(C2(C(=O)O)CC2)ccc1-c1ccc(-n2ncc(F)c2NC(=O)O[C@H](C)c2ccccc2)cc1 [Compound 13, (R)-1-(4′-(4-fluoro-5-(((1-phenylethoxy)carbonyl)amino)-1H-pyrazol-1-yl)-2-methyl-[1,1′-biphenyl]-4-yl)cyclopropane-1-carboxylic acid]
< 300 nM	Cc1cc(C2(C(=O)O)CC2)ccc1-c1ccc(-n2ncc(Cl)c2NC(=O)O[C@H](C)c2ccccc2)cc1 [Compound 14, (R)-1-(4′-(4-chloro-5-(((1-phenylethoxy)carbonyl)amino)-1H-pyrazol-1-yl)-2-methyl-[1,1′-biphenyl]-4-yl)cyclopropane-1-carboxylic acid]
< 300 nM	C[C@@H](OC(=O)Nc1c(F)cnn1-c1ccc(-c2ccc(C3(C(N)=O)CC3)cc2)cc1)c1ccccc1Cl [Compound 15, (R)-1-(2-chlorophenyl)ethyl (1-(4′-(1-carbamoylcyclopropyl)-[1,1′-biphenyl]-4-yl)-4-fluoro-1H-pyrazol-5-yl)carbamate]
< 300 nM	C[C@@H](OC(=O)Nc1c(F)cnn1-c1ccc(-c2ccc(C3(C(=O)NS(C)(=O)=O)CC3)cc2F)cc1)c1ccccc1Cl [Compound 16, (R)-1-(2-chlorophenyl)ethyl (4-fluoro-1-(2′-fluoro-4′-(1-((methylsulfonyl)carbamoyl)cyclopropyl)-[1,1′-biphenyl]-4-yl)-1H-pyrazol-5-yl)carbamate]
< 300 nM	C[C@@H](OC(=O)Nc1c(F)cnn1-c1ccc(-c2ccc(C3(C(=O)NS(C)(=O)=O)CC3)cc2F)cc1)c1ccccc1 [Compound 17, (R)-1-phenylethyl (4-fluoro-1-(2′-fluoro-4′-(1-((methylsulfonyl)carbamoyl)cyclopropyl)-[1,1′-biphenyl]-4-yl)-1H-pyrazol-5-yl)carbamate]
< 300 nM	C[C@@H](OC(=O)Nc1c(Cl)cnn1-c1ccc(-c2ccc(C3(C(=O)NS(C)(=O)=O)CC3)cc2F)cc1)c1ccccc1Cl [Compound 18, (R)-1-(2-chlorophenyl)ethyl (4-chloro-1-(2′-fluoro-4′-(1-((methylsulfonyl)carbamoyl)cyclopropyl)-[1,1′-biphenyl]-4-yl)-1H-pyrazol-5-yl)carbamate]
< 300 nM	C[C@@H](OC(=O)Nc1c(Cl)cnn1-c1ccc(-c2ccc(C3(C(=O)NS(C)(=O)=O)CC3)cc2)cc1)c1ccccc1 [Compound 19, (R)-1-phenylethyl (4-chloro-1-(4′-(1-((methylsulfonyl)carbamoyl)cyclopropyl)-[1,1′-biphenyl]-4-yl)-1H-pyrazol-5-yl)carbamate]
< 300 nM	C[C@@H](OC(=O)Nc1c(F)cnn1-c1ccc(-c2ccc(C3(C(=O)NS(C)(=O)=O)CC3)cc2)cc1)c1ccccc1Cl [Compound 20, (R)-1-(2-chlorophenyl)ethyl (4-fluoro-1-(4′-(1-((methylsulfonyl)carbamoyl)cyclopropyl)-[1,1′-biphenyl]-4-yl)-1H-pyrazol-5-yl)carbamate]
1000 to 50000 nM	C[C@@H](OC(=O)Nc1c(F)cnn1-c1ccc(-c2ccc(C3(c4nnn[nH]4)CC3)cc2)cc1)c1ccccc1Cl [Compound 21, (R)-1-(2-chlorophenyl)ethyl (1-(4′-(1-(1H-tetrazol-5-yl)cyclopropyl)-[1,1′-biphenyl]-4-yl)-4-fluoro-1H-pyrazol-5-yl)carbamate]
< 300 nM	C[C@@H](OC(=O)Nc1c(Cl)cnn1-c1ccc(-c2ccc(C3(c4nnn[nH]4)CC3)cc2)cc1)c1ccccc1 [Compound 22, (R)-1-phenylethyl (1-(4′-(1-(1H-tetrazol-5-yl)cyclopropyl)-[1,1′-biphenyl]-4-yl)-4-chloro-1H-pyrazol-5-yl)carbamate]
1000 to 50000 nM	C[C@@H](OC(=O)Nc1c(Cl)cnn1-c1ccc(-c2ccc(C3(c4nnn[nH]4)CC3)cc2)cc1)c1ccccc1Cl [Compound 23, (R)-1-(2-chlorophenyl)ethyl (1-(4′-(1-(1H-tetrazol-5-yl)cyclopropyl)-[1,1′-biphenyl]-4-yl)-4-chloro-1H-pyrazol-5-yl)carbamate]
1000 to 50000 nM	C[C@@H](OC(=O)Nc1c(Cl)cnn1-c1ccc(-c2ccc(C3(C(=O)NC#N)CC3)cc2)cc1)c1ccccc1 [Compound 24, (R)-1-phenylethyl (4-chloro-1-(4′-(1-(cyanocarbamoyl)cyclopropyl)-[1,1′-biphenyl]-4-yl)-1H-pyrazol-5-yl)carbamate]
